Results taken from patent US20220175744A1, “COMBINATIONS OF TRANSCRIPTION INHIBITORS AND IMMUNE CHECKPOINT INHIBITORS FOR TREATMENT OF DISEASE” (Board of Regents, The University of Texas System, priority 2019, published 2022).

What was measured:
Assay type in all cases: cell-based
[1] = system: patient-derived and commercially-available PDAC cell lines; assay: proliferation assay in a panel of PDAC cell lines; conditions: range over all tested PDAC cell lines
[2] = biological target: T1, p-STAT3 (Homo sapiens, UniProt P40763); assay: inhibition of p-STAT3 by western blot and immunofluorescence in PDAC cell lines; conditions: all tested PDAC cell lines; western blot, immunofluorescence
T1 construct: endogenous in cells
Experimental: The chemical synthesis of WP1066 and WP1732 and their characterization was performed at U.T. MD Anderson Cancer Center. In vitro efficacy of both inhibitors was assessed using proliferation and apoptosis induction assays in a panel of patient-derived and commercially-available PDAC cell lines. Inhibition of p-STAT3 was investigated using western blot (WB) and immunofluorescence. […] Observed IC50 values ranged from 0.5 to 2 μM.

[3] = system: patient-derived and commercially-available PDAC cell lines; assay: apoptosis induction assay in PDAC cell lines; conditions: all tested PDAC cell lines

T1 sequence (P40763 whole entry): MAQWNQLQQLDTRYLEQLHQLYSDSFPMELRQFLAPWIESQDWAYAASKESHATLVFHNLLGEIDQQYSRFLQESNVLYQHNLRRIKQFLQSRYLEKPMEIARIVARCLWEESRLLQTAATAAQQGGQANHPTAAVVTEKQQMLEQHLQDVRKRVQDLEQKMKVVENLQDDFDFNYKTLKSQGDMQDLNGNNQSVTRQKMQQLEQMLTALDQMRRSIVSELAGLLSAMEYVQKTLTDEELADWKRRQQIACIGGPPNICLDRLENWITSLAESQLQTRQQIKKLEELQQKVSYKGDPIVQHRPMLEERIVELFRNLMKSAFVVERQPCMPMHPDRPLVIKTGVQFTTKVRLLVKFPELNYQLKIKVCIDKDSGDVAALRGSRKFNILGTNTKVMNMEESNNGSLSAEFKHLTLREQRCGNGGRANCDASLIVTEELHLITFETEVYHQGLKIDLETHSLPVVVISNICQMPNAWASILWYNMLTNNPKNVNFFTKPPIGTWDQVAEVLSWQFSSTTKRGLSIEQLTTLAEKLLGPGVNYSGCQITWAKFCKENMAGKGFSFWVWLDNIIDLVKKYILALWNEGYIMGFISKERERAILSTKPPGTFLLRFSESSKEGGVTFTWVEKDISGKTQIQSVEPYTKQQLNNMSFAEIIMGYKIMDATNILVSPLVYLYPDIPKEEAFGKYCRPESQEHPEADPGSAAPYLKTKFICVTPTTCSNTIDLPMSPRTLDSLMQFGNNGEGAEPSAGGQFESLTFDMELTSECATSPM

For `C[C@H](NC(=O)/C(C#N)=C/c1cccc(Br)n1)c1ccccc1` [WP1066], which IC50 [1] is on record?
The IC50 was 500 to 2000 nM.

And the “inhibition of p-STAT3 and its nuclear localization” value [2]?
The value was “inhibit p-STAT3 and its nuclear localization”.

And the apoptosis induction [3]?
The apoptosis induction was “induce apoptosis”.
